{
  "source": "patent US20230233482A1",
  "about": "“COMPOSITIONS COMPRISING THYMOL FOR USE IN THE TREATMENT OF INFLAMMATORY OR FUNCTIONAL BOWEL DISORDERS BY MODULATING THE ENDOCANNABINOID SYSTEM” (priority 2020, published 2023)",
  "key": {"FAAH mRNA": {"tested_on": "FAAH mRNA", "assay": "Gene expression (real-time PCR) of ECS enzyme FAAH in duodenal and ileal mucosa at d14", "assay_type": "in vivo, pigs", "protocol": "(§1) At the end of the study, 8 animals from each treatment group were sacrificed, samples were collected, and analysed. Duodenal and ileal mucosal scrapings were collected. The duodenum and ileum were longitudinally cut to expose the mucosa, washed with a phosphate-buffered saline solution to remove mucus and digesta, then scraped gently, packed, immediately frozen in liquid nitrogen and stored at -80° C. until the analyses of gene and protein expression. Gene expression was analysed using the method reported by […] et al. [The Journal of Nutrition. 2011; 141:2139-45]. […] The RNA yield and quality were determined spectrophotometrically by measuring the absorbance at 260 and 280 nm (A260 and A280 nm, respectively) (Microvolume Mode with SmartPath® Technology, Denovix). […] The average threshold cycle (CT) was determined for each gene of interest, and the geometric average was calculated for HK by assuming that CT is the number of cycles required to reach a fixed arbitrary threshold. Delta CT was calculated, then a modification of the 2^-ΔΔCT method [Livak K J, et al., Methods 2001; 25:402-8] was used to analyse the relative expression (fold changes), which was calculated relative to the control group. […]"}, "[1]": {"conditions": "weaned piglets, 25.5-510 mg thymol/kg feed", "protocol": "[…] piglets (Duroc—Large White) weaned at 28 days of age and with a body weight (BW) of 7.71±1.00 kg were divided into 40 pens (4 piglets per pen, castrated males and females were placed in separate pens) and randomly assigned to one of the following experimental groups (n=32): control group fed with the basal diet (T1), a group fed with the basal diet supplemented with 25.5 mg of thymol/kg feed (T2), a group fed with the basal diet supplemented with 51 mg of thymol/kg feed (T3), a group fed with the basal diet supplemented with 153 mg of thymol/kg feed (T4) and a group fed with the basal diet supplemented with 510 mg of thymol/kg feed (T5). Thymol was provided in a form embedded (microencapsulated) in a lipid matrix (Vetagro SpA, Reggio Emilia, Italy). Concentrations of thymol were selected to meet or exceed the upper limit of inclusion in food and feed established by the European Agency for the Evaluation of Medicinal Products and for the feed. The basal feed was formulated to meet or exceed the nutritional requirements of pigs according to the National Research Council, and feed and water were provided ad libitum (the composition of the basal diet is reported in Table 1). The health condition of the animals was monitored during the study. The piglets were individually weighed at the beginning (day 0) and end (day 14) of the study. Growth parameters, such as FI, ADFI, ADG and F:G (FI—feed intake; ADFI—Average daily feed intake; ADG—Average daily gain; F:G—Feed to gain ratio), were measured in the animals housed in each pen on day 14 (d14) of the experiment.\nAnimals were blocked in a completely randomised design and data were analysed using GraphPad Prism® software (GraphPad Software, Inc., La Jolla, Calif., USA). Data were analysed using one-way ANOVA followed by Tukey's post hoc test to detect differences among treatments. The pen was the experimental unit for growth performance, whereas the pig was the experimental unit for gene expression. Differences were considered significant at P<0.05, and trends were defined at 0.05≤P<0.1."}, "CB2 mRNA": {"tested_on": "CB2 mRNA", "assay": "Gene expression (real-time PCR) of cannabinoid receptor 2 in duodenal and ileal mucosa at d14", "assay_type": "in vivo, pigs", "protocol": "At the end of the study, 8 animals from each treatment group were sacrificed, samples were collected, and analysed. Duodenal and ileal mucosal scrapings were collected. The duodenum and ileum were longitudinally cut to expose the mucosa, washed with a phosphate-buffered saline solution to remove mucus and digesta, then scraped gently, packed, immediately frozen in liquid nitrogen and stored at -80° C. until the analyses of gene and protein expression. Gene expression was analysed using the method reported by […] et al. [The Journal of Nutrition. 2011; 141:2139-45]. Duodenal and ileal scraping samples obtained on d14 of the study were disrupted by grinding them in liquid nitrogen with mortar and pestle, and then homogenised using a TissueLyser (Qiagen, Hilden, Germany). Total RNA was isolated using a NucleoSpin® RNA Kit (Macherey-Nagel, Düren, Germany) according to the manufacturer's instructions. Genomic DNA contamination was removed by treating the samples with the deoxyribonuclease supplied in the extraction kit ([…], RNase-free; Macherey-Nagel). The RNA yield and quality were determined spectrophotometrically by measuring the absorbance at 260 and 280 nm (A260 and A280 nm, respectively) (Microvolume Mode with SmartPath® Technology, Denovix). One microgram of RNA was reverse transcribed using the iScript cDNA Synthesis Kit (Bio-Rad Laboratories Inc., Hercules, Calif., USA) according to the manufacturer's instructions. Real-time PCR was performed using an iCycler Thermal Cycler system and SybrGreen Supermix (Bio-Rad Laboratories Inc.). The thermocycling protocol provided for an initial denaturation step for 1 min and 30 seconds at 95° C., followed by 40 cycles of denaturation at 95° C. for 15 seconds and 30 seconds of annealing and extension at 60° C. After amplification, a melting curve analysis was performed for all the samples, with slow heating from 55° C. to 95° C. at a rate of 0.5° C./s to validate the absence of non-specific products. Gene expression was normalised to a housekeeping gene (HK) encoding portions of porcine ribosomal subunit 60 S, in particular ribosomal protein […] (RPL35). The average threshold cycle (CT) was determined for each gene of interest, and the geometric average was calculated for HK by assuming that CT is the number of cycles required to reach a fixed arbitrary threshold. Delta CT was calculated, then a modification of the 2^-ΔΔCT method [Livak K J, et al., Methods 2001; 25:402-8] was used to analyse the relative expression (fold changes), which was calculated relative to the control group. The sequences, accession numbers in the EMBL database/GenBank, expected product lengths and references for porcine primers are reported in Table 2. […]"}, "OR1G1 mRNA": {"tested_on": "OR1G1 mRNA", "assay": "Gene expression (real-time PCR) of gut chemosensing marker OR1G1 in duodenal and ileal mucosa at d14", "assay_type": "in vivo, pigs", "protocol": "as §1"}, "CB1 mRNA": {"tested_on": "CB1 mRNA", "assay": "Gene expression (real-time PCR) of cannabinoid receptor 1 in duodenal and ileal mucosa at d14", "assay_type": "in vivo, pigs", "protocol": "(§2) At the end of the study, 8 animals from each treatment group were sacrificed, samples were collected, and analysed. Duodenal and ileal mucosal scrapings were collected. The duodenum and ileum were longitudinally cut to expose the mucosa, washed with a phosphate-buffered saline solution to remove mucus and digesta, then scraped gently, packed, immediately frozen in liquid nitrogen and stored at -80° C. until the analyses of gene and protein expression. Gene expression was analysed using the method reported by […] et al. [The Journal of Nutrition. 2011; 141:2139-45]. Duodenal and ileal scraping samples obtained on d14 of the study were disrupted by grinding them in liquid nitrogen with mortar and pestle, and then homogenised using a TissueLyser (Qiagen, Hilden, Germany). Total RNA was isolated using a NucleoSpin® RNA Kit (Macherey-Nagel, Düren, Germany) according to the manufacturer's instructions. Genomic DNA contamination was removed by treating the samples with the deoxyribonuclease supplied in the extraction kit ([…], RNase-free; Macherey-Nagel). The RNA yield and quality were determined spectrophotometrically by measuring the absorbance at 260 and 280 nm (A260 and A280 nm, respectively) (Microvolume Mode with SmartPath® Technology, Denovix). One microgram of RNA was reverse transcribed using the iScript cDNA Synthesis Kit (Bio-Rad Laboratories Inc., Hercules, Calif., USA) according to the manufacturer's instructions. Real-time PCR was performed using an iCycler Thermal Cycler system and SybrGreen Supermix (Bio-Rad Laboratories Inc.). […] The average threshold cycle (CT) was determined for each gene of interest, and the geometric average was calculated for HK by assuming that CT is the number of cycles required to reach a fixed arbitrary threshold. Delta CT was calculated, then a modification of the 2^-ΔΔCT method [Livak K J, et al., Methods 2001; 25:402-8] was used to analyse the relative expression (fold changes), which was calculated relative to the control group. […]"}, "TRPV1 mRNA": {"tested_on": "TRPV1 mRNA", "assay": "Gene expression (real-time PCR) of gut chemosensing marker TRPV1 in duodenal and ileal mucosa at d14", "assay_type": "in vivo, pigs", "conditions": "for TRPV1 mRNA levels compared to the control group: ileum, d14, P=0.0183", "protocol": "as §2"}},
  "data": [
    {"smiles": "Cc1ccc(C(C)C)c(O)c1", "note": "[thymol]", "values": [
      {"measurement": "differences in FAAH mRNA levels", "setting": "FAAH mRNA; duodenum, all thymol groups (25.5-510 mg/kg feed), d14", "value": "not observed"},
      {"measurement": "FAAH mRNA levels compared to the control group", "setting": "FAAH mRNA; ileum, group T4 (153 mg thymol/kg feed), d14, P=0.0028", "value": "significantly increased"},
      {"measurement": "health conditions", "setting": "[1]; 14 days", "value": "good health conditions"},
      {"measurement": "mortality", "setting": "[1]; 14 days", "value": "no mortality"},
      {"measurement": "differences in average daily feed intake (ADFI) among the treatment groups", "setting": "[1]; day 14, data not shown", "value": "not observed"},
      {"measurement": "differences in average daily gain (ADG) among the treatment groups", "setting": "[1]; day 14, data not shown", "value": "not observed"},
      {"measurement": "differences in body weight (BW) among the treatment groups", "setting": "[1]; day 14, data not shown", "value": "not observed"},
      {"measurement": "differences in feed intake (FI) among the treatment groups", "setting": "[1]; day 14, data not shown", "value": "not observed"},
      {"measurement": "differences in feed to gain ratio (F:G) among the treatment groups", "setting": "[1]; day 14, data not shown", "value": "not observed"},
      {"measurement": "levels of the CB2 mRNA compared to the control group", "setting": "CB2 mRNA; duodenum, group T4 (153 mg thymol/kg feed), d14, P=0.004", "value": "Significantly increased"},
      {"measurement": "levels of the CB2 mRNA compared to the control group", "setting": "CB2 mRNA; duodenum, group T5 (510 mg thymol/kg feed), d14, P=0.004", "value": "Significantly increased"},
      {"measurement": "levels of the CB2 mRNA compared to the control group", "setting": "CB2 mRNA; ileum, group T4 (153 mg thymol/kg feed), d14, P=0.0162", "value": "Significantly increased"},
      {"measurement": "levels of the CB2 mRNA compared to the control group", "setting": "CB2 mRNA; ileum, group T5 (510 mg thymol/kg feed), d14, P=0.0162", "value": "Significantly increased"},
      {"measurement": "OR1G1 mRNA expression compared to the control group", "setting": "OR1G1 mRNA; duodenum, 510 mg thymol/kg feed (T5), d14, P=0.0210", "value": "higher levels"},
      {"measurement": "OR1G1 mRNA expression compared to the control group", "setting": "OR1G1 mRNA; ileum, 153 mg thymol/kg feed (T4), d14, P=0.0235", "value": "higher levels"},
      {"measurement": "level of the CB1 mRNA compared to the control group", "setting": "CB1 mRNA; duodenum, group T5 (510 mg thymol/kg feed), d14, P=0.0209", "value": "significantly increased"},
      {"measurement": "level of the CB1 mRNA compared to the control group", "setting": "CB1 mRNA; ileum, group T4 (153 mg thymol/kg feed), d14, P=0.0054", "value": "significantly increased"},
      {"measurement": "level of the CB1 mRNA compared to the control group", "setting": "CB1 mRNA; ileum, group T5 (510 mg thymol/kg feed), d14, P=0.0054", "value": "significantly increased"},
      {"measurement": "TRPV1 mRNA level", "setting": "TRPV1 mRNA; duodenum, 510 mg thymol/kg of feed, d14, P=0.0382", "value": "increased"},
      {"measurement": "TRPV1 mRNA levels compared to the control group", "setting": "TRPV1 mRNA; group T4 (153 mg thymol/kg feed)", "value": "increased"},
      {"measurement": "TRPV1 mRNA levels compared to the control group", "setting": "TRPV1 mRNA; group T5 (510 mg thymol/kg feed)", "value": "increased"}
    ]}
  ]
}
